Test results reported in patent US8455444B2, “CDH3 peptide and medicinal agent comprising the same” (Oncotherapy Science, Inc., priority 2007, dated 2013).
Entries after “also recorded” stand apart in the source; their conditions may differ. Where a SMILES comes first, the peptide text is derived from it.

Columns and labels:
Type in all cases: cell-based
HCT116 = assay: 51Cr release assay of peptide-induced human CTLs against cancer cell line; conditions: for cytotoxicity to HCT116 (CDH3+, HLA-A2+): CTLs from healthy donors; for cytotoxicity to HCT116: FIG. 4C: CTLs from PBMCs of HLA-A2 positive cancer patients
Source text: (§1) Human pancreatic cancer cell line PK8 was kindly provided by the Cell Resource Center for Biomedical Research, Institute of Development, Aging and Cancer, Tohoku University. Human colon cancer cell line HCT116 was kindly provided by Dr. B. Vogelstein, Johns Hopkins University (Baltimore, Md.). Human liver cancer cell line SKHep1 was kindly provided by Professor Kyogo Ito, Kurume University (Kurume, Japan).
(§2) PBMCs derived from heparinized blood of HLA-A2 positive pancreatic cancer patients, gastric cancer patients, colorectal cancer patients, or healthy donors were isolated by Ficoll-Conray density gradient centrifugation. […] DCs were pulsed with 20 μg/mL of a candidate peptide in the presence of 4 μg/mL β2-microglobulin (Sigma-Aldrich, St. Louis, Mo., USA) for two hours at 37° C. in AIM-V (Invitrogen) containing 2% heat-inactivated autologous plasma. These DCs were then irradiated (40 Gy) and incubated with CD8 positive cells. The incubation was carried out in 24-well plates, which were prepared to contain in each well 2 mL of AIM-V supplemented with 2% autologous plasma, 1×10^5 peptide-pulsed DCs, 2×10^6 CD8^+ T cells, and 5 ng/mL of human recombinant IL-7 (Wako, Osaka, Japan). After two days, these cultures were supplemented with human recombinant IL-2 (PeproTec Inc.) to a final concentration of 20 IU/mL. Two additional weekly stimulations with the same peptide-pulsed autologous DCs using the same procedure were carried out on day 7 and day 14. Six days after the last stimulation, the antigen-specific responses of induced CTLs were evaluated by ^51Cr release assay and IFN-γ ELISPOT assay.

T2 cells = assay: 51Cr release assay of peptide-induced human CTLs against peptide-pulsed T2 cells; conditions: CTLs induced from PBMCs of HLA-A2 positive healthy donors, three stimulations
Source text: as §1
PBMCs derived from heparinized blood of HLA-A2 positive pancreatic cancer patients, gastric cancer patients, colorectal cancer patients, or healthy donors were isolated by Ficoll-Conray density gradient centrifugation. […] DCs were pulsed with 20 μg/mL of a candidate peptide in the presence of 4 μg/mL β2-microglobulin (Sigma-Aldrich, St. Louis, Mo., USA) for two hours at 37° C. in AIM-V (Invitrogen) containing 2% heat-inactivated autologous plasma. These DCs were then irradiated (40 Gy) and incubated with CD8 positive cells. […] Six days after the last stimulation, the antigen-specific responses of induced CTLs were evaluated by ^51Cr release assay and IFN-γ ELISPOT assay.
CD8 T cells sorted from PBMCs were incubated with autologous mononuclear cell (monocyte)-derived DCs pulsed with each peptide. After three stimulations, cytocidal effect against peptide-pulsed T2 cells was evaluated by ^51Cr release assay (FIG. 4A) and IFN-γ ELISPOT assay.

HSC3 = assay: 51Cr release assay of peptide-induced human CTLs against cancer cell line; conditions: CTLs from healthy donors
Source text: as §1, §2

PANC1 = assay: as above; conditions: CTLs from healthy donors
Source text: as §1, §2

PK8 = assay: as above; conditions: CTLs from healthy donors
Source text: as §1, §2

SKHep1 = assay: as above; conditions: CTLs from healthy donors
Source text: as §1, §2

PANC1/CDH3 = assay: as above; conditions: for cytotoxicity to PANC1/CDH3: FIG. 4C: CTLs from PBMCs of HLA-A2 positive cancer patients
Protocol: as §1
(§3) After 60 hours, the culture medium was recovered and the viral particles were pelleted by ultracentrifugation (50,000×g, two hours).
as §2

SKHep1/CDH3 = assay: as above; conditions: FIG. 4C: CTLs from PBMCs of HLA-A2 positive cancer patients
Protocol: as §1, §3, §2

Compound	cytotoxicity to HCT116 (CDH3+, HLA-A2+) (HCT116)	cytotoxicity (cytocidal effect) against peptide-pulsed T2 cells (T2 cells; listed as CDH3-4655-663)	cytotoxicity to HCT116 (HCT116)	cytotoxicity to HSC3 (CDH3+, HLA-A2+) (HSC3)	cytotoxicity to PANC1 (CDH3−, HLA-A2+) (PANC1)	cytotoxicity to PK8 (CDH3+, HLA-A2−) (PK8)	cytotoxicity to SKHep1 (CDH3−, HLA-A2+) (SKHep1)	cytotoxicity to PANC1/CDH3 (CDH3+, HLA-A2+) (PANC1/CDH3; CTLs from healthy donors)	cytotoxicity to PANC1/CDH3 (PANC1/CDH3)	cytotoxicity to SKHep1/CDH3 (CDH3+, HLA-A2+) (SKHep1/CDH3)	cytotoxicity (cytocidal effect) against peptide-pulsed T2 cells (T2 cells; listed as CDH3-7757-765)
CC(C)C[C@H](NC(=O)[C@@H](NC(=O)[C@H](C)NC(=O)[C@H](Cc1ccc(O)cc1)NC(=O)[C@@H](NC(=O)[C@H](CC(N)=O)NC(=O)[C@H](Cc1ccc(O)cc1)NC(=O)[C@H](CC(C)C)NC(=O)[C@@H](N)CO)[C@@H](C)O)[C@@H](C)O)C(=O)O [HIV peptide, SLYNTYATL, reference compound] (H-SLYNTYATL-OH)	did not exhibit cytotoxicity; also recorded: did not show cytotoxicity	–	–	–	–	–	–	–	–	–	–
CC[C@H](C)[C@H](NC(=O)[C@@H](N)Cc1ccccc1)C(=O)N[C@@H](CC(C)C)C(=O)N1CCC[C@H]1C(=O)N[C@H](C(=O)N[C@@H](CC(C)C)C(=O)NCC(=O)N[C@@H](C)C(=O)N[C@H](C(=O)O)C(C)C)C(C)C [CDH3-4, FILPVLGAV] (H-FILPVLGAV-OH)	exhibited in healthy donors cytotoxicity	exhibited cytocidal effect; also recorded: exhibited cytotoxicity	exhibited cytotoxicity	exhibited in healthy donors cytotoxicity	did not exhibit the same effect	did not exhibit the same effect	did not exhibit the same effect	exhibited in healthy donors cytotoxicity	exhibited cytotoxicity	exhibited cytotoxicity	–
CC[C@H](C)[C@H](NC(=O)[C@@H](NC(=O)[C@@H](N)Cc1ccccc1)[C@@H](C)CC)C(=O)N[C@@H](CCC(=O)O)C(=O)N[C@@H](CC(N)=O)C(=O)N[C@@H](CC(C)C)C(=O)N[C@@H](CCCCN)C(=O)N[C@@H](C)C(=O)N[C@@H](C)C(=O)O [CDH3-7, FIIENLKAA] (H-FIIENLKAA-OH)	–	–	exhibited cytotoxicity	exhibited cytotoxicity	–	–	–	–	exhibited cytotoxicity	exhibited cytotoxicity	exhibited cytocidal effect; also recorded: exhibited cytotoxicity
